Data as given in US20080293583A1, “Methods for diagnosing mood disorders” (Wyeth, priority 2003, published 2008).

System: progenitor stem cells in the subgranular zone (SGZ) of the hippocampus
Test: BrdU immunostaining, cell proliferation in hippocampal SGZ after chronic antidepressant
Type: in vivo, rat
Details: P<0.01; for number of proliferating (BrdU-positive) cells in the SGZ compared with saline-treated control rats: FIG. 1A, chronic administration; for increase in the proliferation rate of progenitor stem cells in the SGZ: versus saline controls, 2 week systemic administration, BrdU twice a day for 4 days, n=5
Description: Antidepressant treatment and BrdU dosing. Dosing of adult male Sprague Dawley rats was performed as described above for 14 days (n=10 rats per group). To evaluate the effect of chronic antidepressant treatment on proliferation of progenitor stem cells, 24 hours after the last antidepressant injection, rats were administered BrdU (Sigma, St. Louis, Mo.) (50 mg/kg rig ip injection twice a day) for 4 days prior to euthanesia. To evaluate the effect of chronic antidepressant treatment on survival of progenitor stem cells, a sub-group of rats were allowed to live for 4 weeks after BrdU injection. All rats were perfused through the ascending aorta with 50 ml of 0.9% saline, followed by 400 ml of freshly prepared 4% paraformaldehyde in PBS (pH 7.5). After 30-60 minutes post-perfusion, rat brains were removed and postfixed in 4% paraformaldehyde in PBS overnight, followed by immersion in 30% sucrose/PBS solution for 48-72 hours at 4° C. Brains were rapidly frozen on dry-ice and stored at −80° C. Brain sectioning and staining for BrdU immunoreactivity were performed as previously described by Malberg et al. (2000). Briefly, serial coronal sections of each brain were cut (35 μm thickness) through the entire hippocampus (stereotaxic plates 26-40 according to Paxinos, Watson and Emson, 1980) using a freezing microtome. Every sixth section throughout the hippocampus was processed for BrdU staining. Free-floating sections were maintained in 100 mM PBS (about 100 sections per brain). DNA denaturation of the sections was performed as follows: sections were treated with 50% formamide/50% 2×SSC (0.3 M NaCl/0.03 M sodium citrate) for 2 hours at 65° C., rinsed in PBS (2 times for 5 minutes at room temperature), incubated with 2 N HCl for 30 minutes, followed by 0.1 M boric acid buffer (pH 8.5) for 10 minutes and a final rinse in PBS. For BrdU immunostaining, sections were incubated with 3% H2O2 in PBS for 30 minutes, rinsed in PBS and blocked with 3% normal horse serum in 0.01% TritonX-100 for 30 minutes. […] All BrdU labeled cells in the subgranular zone (SGZ) were counted in each section by an experimenter blinded to the study code. […] The total number of BrdU labeled cells per section were determined and multiplied by 12 to obtain the total number of cells per dentate gyrus. […]
In vivo studies were performed to measure the effects of antidepressant drug treatment on adult hippocampal neurogenesis by immunological methods. […] The BrdU immunostaining and quantitative results indicated a significant increase (˜33%) in the proliferation rate of progenitor stem cells in the subgranular zone (SGZ) of the hippocampus for both venlafaxine (P<0.01; n=5) and fluoxetine (P<0.01; n=5) versus saline controls. […]

Compound	number of proliferating (BrdU-positive) cells in the SGZ compared with saline-treated control rats	increase in the proliferation rate of progenitor stem cells in the SGZ
CNCCC(Oc1ccc(C(F)(F)F)cc1)c1ccccc1 (stereo not shown) [Fluoxetine, fluoxetine]	increased the number of proliferating cells in the SGZ	~33%
COc1ccc(C(CN(C)C)C2(O)CCCCC2)cc1 (stereo not shown) [Venlafaxine, venlafaxine]	increased the number of proliferating cells in the SGZ	~33%
